Our source for the EC50, IC50 and outcome values is PubChem BioAssay AID179 (DTP/NCI, 2004).

Active and inactive are the calls of the source.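 Rule for the calls: active = compounds giving half or more protection of infected cells from virus-caused growth loss, again on retest; inactive = the rest.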 A value given as a limit tells only on which side of the number the result lay.

The assay deals with CEM cells HIV-1 protection, formazan growth assay. Kind of assay: NCI AIDS Antiviral Assay. The following applies: for IC50: measured here: growth of uninfected CEM cells. The essentials:
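Steps: treat uninfected and HIV-1-infected human CEM cells at five drug levels; quantify growth by soluble formazan; retest any compound reaching 50% protection; classify actives from the retest.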

`CC(C)(C)O/N=C/c1cc(NC(=S)c2ccsc2)ccc1Cl`: the EC50 is 2.14 µM and the IC50 was determined as 9.55 µM.

Consider `COC(=O)/C(C#N)=C/NC(=S)Nc1ccccc1`, for which the EC50 was over 200 µM and the IC50 was over 200 µM.

For `Oc1ccccc1C=Nc1ccccc1S.[Cu+2]`, the EC50 is over 151 µM and the IC50 came to 2.57 µM.

As to `CC(=O)[CH-]C(=O)c1ccccc1.CC(=O)[CH-]C(=O)c1ccccc1.CC(=O)[CH-]C(=O)c1ccccc1.[Tl+3]`, the EC50 was over 138 µM and the IC50 was determined as 49 µM.

As for `O=c1[nH]cc(NS(=O)(=O)O)c(=O)[nH]1`, the EC50 was over 200 µM and the IC50 was over 200 µM.

Regarding `C[C@@H]1[C@H](C)N1CC(O)Cn1ccnc1[N+](=O)[O-]` (some centres not stated), the EC50 is over 200 µM and the half-inhibitory concentration (IC50) is over 200 µM.

For the compound `C=C(C=O)[C@@H]1C2OC(=O)C(=C)[C@@H]2CC(O)[C@@]1(C)CC` (some centres not stated), the EC50 was over 151 µM and the IC50 came out at 5.89 µM.

Consider `COC(=O)C[CH](C(=O)OC)[Ge]([CH3])([CH3])[S]c1ccccc1` (configuration not stated), for which the EC50 is over 100 µM and the IC50 came out at 18.2 µM.

For `CCN(CC)/N=C\c1c2ccccc2cc2ccccc12`, the EC50 is over 200 µM and the IC50 was 85.1 µM.

For the compound `C/C=C/C(=O)[C@@H](O)C(C)C`, the result was inactive.

As for `C/C(=N\N=C(N)N)C(CN1CCOCC1)C(c1ccccc1)c1c(O)c2ccccc2oc1=O` (configuration not stated), the EC50 was over 52.5 µM and the IC50 was over 52.5 µM.

Regarding `O=C(CC(C(=O)c1ccsc1)c1cccs1)c1ccsc1` (configuration not stated), the EC50 was over 200 µM and the concentration for half-maximal inhibition (IC50) came to 15.5 µM.

As for `CCNC(=O)COc1cc2c(O)c3c(O)c(C)c4c(c13)C(=O)C(C)(O/C=C/C(OC)C(C)C(OC(C)=O)C(C)C(O)C(C)C(O)C(C)/C=C/C=C(\C)C(=O)N2)O4` (configuration not stated), the EC50 is over 200 µM and the IC50 came to 83.2 µM.

With `COc1ccc(OC)c(/C=C2\C=Cc3ccccc32)c1`, the EC50 is over 38 µM and the IC50 is 6.46 µM.

For the compound `Cc1c(C(=O)O)n(C)c(=O)n(C)c1=O`, the result was inactive.

For the compound `Oc1cc(O)c(Oc2cccc(O)c2O)c(O)c1`, the EC50 was over 1000 µM and the IC50 was found to be 38.9 µM.

For the compound `CCCCCCCCCCCCN1C(=O)c2ccccc2[Se]1=O` (configuration not stated), the EC50 is over 2.75 µM and the IC50 is over 2.75 µM.

On to `N#CC1(C2SCCS2=O)C2=C(C(=O)c3ccccc3C2=O)N2CCCC21` (configuration not stated), for which the result was inactive.

With `O=C1CC(c2ccccc2)Sc2ccccc2N1` (configuration not stated), the EC50 was over 200 µM and the IC50 came out at 89.1 µM.

Take `CCCCC(=O)c1c(O)c2ccccc2oc1=O`: the EC50 is over 200 µM and the concentration for half-maximal inhibition (IC50) was 29.5 µM.

As to `CC1(CC(O)(C(F)(F)F)C(F)(F)F)NC(=O)NC1=O` (configuration not stated), the EC50 is over 200 µM and the 50% inhibitory concentration (IC50) was over 200 µM.

`O=C(O)C12CCCC(CCC1)C2`: the outcome was inactive.

In the case of `CSC(=NC(=O)c1ccccc1Cl)SCCSC(=NC(=O)c1ccccc1Cl)SC`, the EC50 is over 347 µM and the IC50 was over 347 µM.

On to `CCOC(=O)C(CSSCC(NC(C)=O)C(=O)OCC)NC(C)=O` (configuration not stated), for which the EC50 was 81.3 µM and the IC50 turned out to be 141 µM.

Consider `CCCCCCCn1ccnc1NCCCCCCCCCCNc1nccn1CCCCCCC`, for which the EC50 was over 37.2 µM and the IC50 was 10 µM.

For `Cc1ccc(C)c2c1C/C(=C\c1ccccc1C(=O)O)C2=O`, the EC50 was over 200 µM and the IC50 came to 83.2 µM.

With `CC(=O)OCC1OC(n2cc([N+](=O)[O-])c(=O)[nH]c2=O)C(OC(C)=O)C(OC(C)=O)C1OC(C)=O` (configuration not stated), the EC50 is over 513 µM and the IC50 was over 513 µM.

With `O=C(CCCCC(=O)OCC1COCO1)OCC1COCO1` (configuration not stated), the EC50 is over 200 µM and the IC50 is over 200 µM.
